The test system of one series is MOLM 13. Put plainly: Cell viability (CellTiter-Glo), 6-day compound treatment. Type of series: cell-based, Human. The following applies: Homo sapiens, MOLM-13, 144 h, read-out: MOLM 13 Viability 6 d IC50. The gist of the method: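 Cells plated at 1700 per well, left overnight at 37° C./5% CO2, then exposed to 10-fold compound dilutions for 6 days […]. Viability by CellTiter-Glo luminescence; IC50 from nonlinear regression fit.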
Background: Cellular ATP, detected with luciferase, serves as a proxy for viable cell number.

Another series relates to SKOV-3. Briefly: Cell viability (CellTiter-Glo), 48 hrs. Type of series: cell-based. The note with it: Homo sapiens, SK-OV-3, 48 h, read-out: SKOV-3 Viability 48 h IC50.
The nature of series [1]: Pharmacokinetic study in mice, time course PK. The note with it: female, C57BL/6J, mouse, IP dose 10 mg/kg, plasma. Type of series: in vivo. The procedure:
(§1) All animal procedures were approved by the Sanford Burnham Prebys Medical Discovery Institute Institutional Animal Care and Use Committee and were performed according to the NIH guidelines for the Care and Use of Laboratory Animals. Adult female C57BL/6J were purchased from JAX laboratories and housed with free access to food and water on a 12 h light/dark cycle. Compounds were formulated in 5% DMSO, 10% Tween-80, and 85% dH2O and injected intraperitoneally (i.p.) into mice at doses of 10 mg/kg. For snapshot PK analysis, blood samples were collected retro-orbitally one hour after injection and for the time course PK study, blood samples were collected at 15 min, 30 min, 1 h, 2 h, 4 h, 6 h, 24 h time points. For the blood samples plasma was separated by centrifugation. Plasma samples were extracted with acetonitrile:water 4:1 with 0.1% formic acid containing indometacin as an internal standard. Samples were centrifuged and supernatants were diluted with acetonitrile:water and analyzed via LC-MS/MS on a Shimadzu Nexera X2 HPLC coupled to an AB Sciex 6500 QTRAP.
In vivo pharmacokinetic data for compound 18m in mice. Compound was formulated in 5% DMSO, 10% Tween 80 and water and administered by intraperitoneal injection.

The test system of series [2] is latently infected cell line Jurkat 2D10. Briefly: HIV Jurkat 2D10 cells GFP+ assay (reversal of HIV latency). Type of series: cell-based. The following applies: Homo sapiens, Jurkat, 48 h, read-out: Jurkat 2D10 GFP+ EC50. In short, it runs like this: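 Jurkat 2D10 cells exposed to graded doses of test compounds or IAP antagonists (BV-6, SM-164, Birinapant, LCL-161, GDC-0152, AT-406) for 48 hours. GFP expression quantified by flow cytometry. Induction expressed relative to baseline GFP in untreated cells.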

Series [3] is described as follows: Pharmacokinetic study in mice, snapshot PK. Type of series: in vivo. The note with it: female, C57BL/6J, mouse, plasma, ip, one hour after i.p. injection of 10 mg/kg. The procedure:
as §1
Plasma exposure of selected compounds at 1 h compared.
Plasma levels of parent compound determined one hour after i.p. injection of 10 mg/kg

In another series the test system is AML-SH-074. Put plainly: Cell viability in patient derived AML samples (CellTiterGlo, 72 h). Type of series: cell-based, human. The method, then:
(§2) Patient AML samples were gathered (under IRB 13-6180) from Scripps MD Anderson, La Jolla, CA Fresh blood samples were subjected to gradient density centrifugation with Ficoll-Paque™ PLUS (17-1440-02, GE Healthcare) and peripheral blood mononuclear cells purified as per manufacturer's protocol.
(§3) 75 nL of 1000× serially diluted IAP inhibitors were spotted in triplicate onto 384-well tissue culture treated plates (Greiner) using a Labcyte Echo acoustic dispensing device. Patient-derived AML cells were maintained in mTeSR1^+1× supplements (Stemcell Technologies) and penicillin/streptomycin/L-glutamine (Omega Scientific Inc.) and Fungizone (HyClone). 25 μL of cell dilution were plated into 384-well plate containing the drugs and incubated for 72 h. Cell viability was assessed by adding 25 μL CellTiterGlo (Promega Corp.) on a Synergy 2 plate reader with Gen5 software (Biotek). % viability was calculated by normalizing luminescence to vehicle only controls (DMSO) in Microsoft Excel and plotted using GraphPad Prism 8. The IC50 values were calculated using log(inhibitor) vs. response—Variable slope (four parameters) equation. (FIG. 6)

The next series relates to AML-SH-065. Described as above. Type of series: cell-based, human. The procedure:
as §2, §3

The subject of the next series is AML-SH-075. The series is described as above. Type of series: cell-based, human. The method, then: as §2, §3
A further series concerns the target BIR3 domain of cIAP2 (Homo sapiens, UniProt Q13489). Put plainly: Fluorescence polarization assay. Type of series: binding. The note with it: SMAC-FITC probe, Ki calculated from IC50. The gist of the method: (§4)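 Competitive FP with 50 nM SMAC-FITC probe in 100 mM KH2PO4 pH 7.5, 50 μM ZnSO4, 1 mM TCEP; cIAP1 and XIAP at 800 nM, cIAP2 and ML-IAP at 1.5 μM. Compounds 30 μM to 1.5 nM in 3-fold steps; ex 485/em 535 nm. IC50 by nonlinear fit, converted to Ki via Nikolovska-Coleska equation.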

Another series addresses BIR3 domain of XIAP (Homo sapiens, UniProt P98170). Briefly: Fluorescence polarization assay. Type of series: binding. The following applies: SMAC-FITC probe, Ki calculated from IC50. The gist of the method:
as §4

The target in another series is T1, ML-IAP (Homo sapiens, UniProt Q96CA5).
T1 sequence (Q96CA5 1-298): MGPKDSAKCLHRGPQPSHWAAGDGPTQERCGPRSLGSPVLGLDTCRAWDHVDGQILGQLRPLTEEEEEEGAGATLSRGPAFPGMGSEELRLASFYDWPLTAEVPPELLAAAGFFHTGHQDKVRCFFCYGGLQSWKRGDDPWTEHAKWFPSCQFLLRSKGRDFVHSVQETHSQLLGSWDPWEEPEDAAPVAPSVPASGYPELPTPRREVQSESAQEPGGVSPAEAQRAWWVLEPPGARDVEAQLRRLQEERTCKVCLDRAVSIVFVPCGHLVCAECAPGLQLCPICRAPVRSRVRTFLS
Put plainly: Fluorescence polarization assay. Type of series: binding. The following applies: SMAC-FITC probe, Ki calculated from IC50. In short, it runs like this:
as §4

Another series deals with BIR3 domain of cIAP1 (Homo sapiens, UniProt Q13490). Briefly: Fluorescence polarization assay. Type of series: binding. The note with it: SMAC-FITC probe, Ki calculated from IC50. The gist of the method: as §4
Chain of BIR3 domain of cIAP1 (Q13490 253-363 limits assumed): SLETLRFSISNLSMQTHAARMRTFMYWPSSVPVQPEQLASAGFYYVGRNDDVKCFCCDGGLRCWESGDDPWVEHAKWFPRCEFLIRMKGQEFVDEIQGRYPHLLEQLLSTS

Where only a bound is given, the exact number is not on record here.

Chain of BIR3 domain of XIAP (P98170 241-356 limits assumed): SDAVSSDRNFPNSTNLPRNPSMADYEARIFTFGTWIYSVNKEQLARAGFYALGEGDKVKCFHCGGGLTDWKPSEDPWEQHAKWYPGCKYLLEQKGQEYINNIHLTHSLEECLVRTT
Chain of BIR3 domain of cIAP2 (Q13489 238-349 limits assumed): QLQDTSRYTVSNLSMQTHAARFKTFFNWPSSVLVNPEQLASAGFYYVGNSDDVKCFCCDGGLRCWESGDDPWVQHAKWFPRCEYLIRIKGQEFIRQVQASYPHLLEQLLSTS

A word on the IC50: it is the concentration that gives 50% inhibition. One may read the AUC(0-t) as exposure summed from dosing to a finite time, without extrapolation to infinity. The low end stands for less exposure, the high end for more exposure. A word on the Cmax: it is the peak of the concentration-time curve. What is called Tmax is the time from dosing to the highest level. In general, half-life refers to how long it takes for the measured level to halve. By EC50 is commonly meant the concentration at which the effect is half-maximal. The term Ki denotes a dissociation constant, usually derived from enzyme kinetics or from competition with a known ligand. Turning to `CC[C@H](NC)C(=O)N[C@H]1CCS[C@H]2CC(C)(C)[C@@H](C(=O)N[C@H]3c4ccccc4C[C@H]3OCC#CC#CCO[C@@H]3Cc4ccccc4[C@@H]3NC(=O)[C@H]3N4C(=O)[C@@H](NC(=O)[C@H](CC)NC)CCS[C@H]4CC3(C)C)N2C1=O` [Compound 18m, [(1S)-1-{[(4S,7S,9aS)-7-{[(1S,2R)-2-[(6-{[(1S,2R)-1-[(4S,7S,9aS)-8,8-Dimethyl-4-[(2S)-2-(methylazaniumyl)butanamido]-5-oxo-octahydropyrrolo[2,1-b][1,3]thiazepine-7-amido]-2,3-dihydro-1H-inden-2-yl]oxy}hexa-2,4-diyn-1-yl)oxy]-2,3-dihydro-1H-inden-1-yl]carbamoyl}-8,8-dimethyl-5-oxo-octahydropyrrolo[2,1-b][1,3]thiazepin-4-yl]carbamoyl}propyl](methyl)azanium dichloride], the IC50 was 10 to 100 nM in the series on MOLM 13; less than 10 nM in the series on SKOV-3; 100 to 1000 nM in the series on AML-SH-074 (Homo sapiens, 72 h, read-out: AML-SH-074 IC50); less than 10 nM in the series with AML-SH-065 (Homo sapiens, 72 h, read-out: AML-SH-065 IC50); 10 to 100 nM in the series with AML-SH-075 (Homo sapiens, 72 h, read-out: AML-SH-075 IC50). The AUC(0-t) in series [1] was determined as 18.1 µM·h. The compound further gave a Cmax in series [1] of 6.6 µM. In addition, in [1], the Tmax worked out at 1 h. The compound further had a half-life in series [1] (terminal half-life) of 3 h. The EC50 in series [2] was in the range of 1 to 10 nM. Besides, in [3], the concentration at 1 h amounted to 6.59 µM. For the same compound, the “AML-SH-074 Efficacy” value in the series on AML-SH-074 (patient derived AML sample AML-SH-074, 72 h, cell viability at max. concentration) is reported as “I (I < 10%)”. Further, the “AML-SH-065 Efficacy” value in the series on AML-SH-065 (patient derived AML sample AML-SH-065, 72 h, cell viability at max. concentration) is “I (I < 10%)”. Besides, the “AML-SH-075 Efficacy” value with AML-SH-075 (patient derived AML sample AML-SH-075, 72 h, cell viability at max. concentration) is given as “I (I < 10%)”. Further, the Ki on BIR3 domain of cIAP2 is 50 to 100 nM; at BIR3 domain of XIAP, not above 50 nM; on ML-IAP it was 50 to 100 nM; at BIR3 domain of cIAP1 it was not above 50 nM.

The values are drawn from patent publication US12678509B2, “Inhibitor of apoptosis (IAP) protein antagonists” (Sanford Burnham Prebys Medical Discovery Institute, priority 2019, dated 2026).
